Experiment [1] deals with T1, PRMT5 (Homo sapiens, UniProt O14744).
T1 construct: purchased Viva (custom protein)
The experiment can be described thus: PRMT5 biochemical IC50 assay with MTA as cofactor. The following applies: PRMT5, MTA as cofactor; read-out: MTA IC50.

Experiment [2] concerns HAP1 MTAP-deleted cell line. The experiment can be described thus: SDMA in-cell western assay, HAP1 MTAP-deleted. The class given is cell-based. The following applies: for IC50: Homo sapiens, HAP1, SDMA in-cell western, HAP1 MTAP-deleted, read-out: HAP1 MTAP deleted IC50; for MTAP intact/deleted ratio: IC50 ratio HAP1 MTAP-intact / HAP1 MTAP-deleted, SDMA in-cell western. The method in brief: (§1)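 IC50 values come from SDMA signal quantified by in-cell western in two HAP1 lines, one with native MTAP levels and one lacking MTAP.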

The target of experiment [3] is T1, PRMT5. The experiment can be described thus: PRMT5 biochemical IC50 assay with no cofactor. The following applies: PRMT5, no cofactor; read-out: No Cofactor/rel IC50. The text has this: Table 1 indicates IC50 values (μM) against PRMT5 for exemplary compounds in the presence of SAM as cofactor, with no cofactor, and with MTA as cofactor, respectively (columns 4-6). […] Ki values can be calculated from the IC50 values as described in the Examples section. As detailed in the Examples section, for the assay performed in the presence of SAM, IC50=Ki×1.5 (Ki=IC50/1.5).

The test system of experiment [4] is HAP1 MTAP-intact cell line. The experiment can be described thus: SDMA in-cell western assay, HAP1 MTAP-intact. The format is cell-based. The following applies: Homo sapiens, HAP1, SDMA in-cell western, HAP1 MTAP-intact; read-out: MTAP HAP1 intact IC50. The method in brief:
as §1

Experiment [5] relates to HAP1 MTAP-deleted cell line. The experiment can be described thus: Viability assay, MTAP-deleted cell line. The following applies: Homo sapiens, HAP1, viability assay, MTAP-deleted cell line; read-out: HAP1 MTAP deleted viability. The class given is cell-based. The text has this:
Table 1 additionally indicates IC50 values in a viability assay for the MTAP-deleted cell line (column 10), indicating the effect of treatment with compound on cell survival.

Experiment [6] has as its target T1, PRMT5. The experiment can be described thus: PRMT5 biochemical IC50 assay with SAM as cofactor. The following applies: PRMT5, SAM as cofactor; read-out: SAM IC50.

Each structure is given as a SMILES string.

T1 sequence (O14744 whole entry): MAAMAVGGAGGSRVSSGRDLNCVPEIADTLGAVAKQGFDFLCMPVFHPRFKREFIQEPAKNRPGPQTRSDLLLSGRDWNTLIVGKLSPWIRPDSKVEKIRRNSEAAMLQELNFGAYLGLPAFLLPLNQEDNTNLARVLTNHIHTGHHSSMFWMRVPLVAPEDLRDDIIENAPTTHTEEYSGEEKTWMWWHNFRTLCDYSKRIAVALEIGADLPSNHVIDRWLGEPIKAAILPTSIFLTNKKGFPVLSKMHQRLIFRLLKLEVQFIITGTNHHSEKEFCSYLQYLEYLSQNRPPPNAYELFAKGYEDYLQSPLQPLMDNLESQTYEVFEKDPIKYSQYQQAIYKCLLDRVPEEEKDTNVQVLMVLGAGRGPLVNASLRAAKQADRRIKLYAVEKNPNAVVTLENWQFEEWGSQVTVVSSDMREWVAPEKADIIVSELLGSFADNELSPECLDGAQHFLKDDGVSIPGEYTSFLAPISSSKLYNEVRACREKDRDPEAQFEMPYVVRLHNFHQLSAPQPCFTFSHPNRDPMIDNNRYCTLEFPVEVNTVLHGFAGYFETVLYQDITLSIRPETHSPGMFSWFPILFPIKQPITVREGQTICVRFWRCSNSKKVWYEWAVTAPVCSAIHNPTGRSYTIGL
T1 sequence (Q9BQA1 whole entry partner): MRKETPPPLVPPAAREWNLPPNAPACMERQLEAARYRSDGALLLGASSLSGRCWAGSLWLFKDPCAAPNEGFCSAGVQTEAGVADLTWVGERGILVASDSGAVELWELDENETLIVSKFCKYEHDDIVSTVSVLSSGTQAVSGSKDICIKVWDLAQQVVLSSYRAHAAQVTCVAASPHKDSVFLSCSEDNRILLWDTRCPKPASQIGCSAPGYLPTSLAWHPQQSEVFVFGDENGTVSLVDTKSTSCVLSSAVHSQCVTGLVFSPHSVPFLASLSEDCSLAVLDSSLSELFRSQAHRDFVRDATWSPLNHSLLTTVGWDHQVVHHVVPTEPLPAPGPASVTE

As for `C[C@@H]1CC[C@@H](c2cnc3ccccc3c2)N(C(=O)C(=O)Nc2cncc(C(N)=O)c2)C1` (racemic) [Compound 257, rac-5-{2-[(2R,5S)-5-Methyl-2-(quinolin-3-yl)piperidin-1-yl]-2-oxoacetamido}pyridine-3-carboxamide], the IC50 in experiment [1] is 50 to 500 nM; in experiment [2], over 1000 nM; in experiment [3] it was over 500 nM; in experiment [4], over 1000 nM; in experiment [5], over 10000 nM; in experiment [6], over 500 nM. For the same molecule, the MTAP intact/deleted ratio result in experiment [2] is “B (an IC50 ratio greater than or equal to 3 fold but lower than 10 fold)”.

For the molecule `C[C@@H]1CC[C@@H](c2ccc(C3(O)CCC3)cc2)N(C(=O)C(=O)Nc2cncc(C(N)=O)c2)C1` (racemic) [Compound 259, rac-5-{2-[(2R,5S)-2-[4-(1-Hydroxycyclobutyl)phenyl]-5-methylpiperidin-1-yl]-2-oxoacetamido}pyridine-3-carboxamide], the IC50 was 50 to 500 nM in experiment [1]; 100 to 1000 nM in experiment [2]; 50 to 500 nM in experiment [3]; over 1000 nM in experiment [4]; over 10000 nM in experiment [5]; 50 to 500 nM in experiment [6]. The MTAP intact/deleted ratio entry in experiment [2] is listed as “A (an IC50 ratio greater than or equal to 10 fold)”.

For `C[C@@H]1CC[C@@H](c2cccc(C3CCC3)c2)N(C(=O)C(=O)Nc2cncc(C(N)=O)c2)C1` (racemic) [Compound 261, rac-5-{2-[(2R,5S)-2-(3-Cyclobutylphenyl)-5-methylpiperidin-1-yl]-2-oxoacetamido}pyridine-3-carboxamide], the IC50 in experiment [1] is under 50 nM; in experiment [2] it was under 100 nM; in experiment [3], 50 to 500 nM; in experiment [4], over 1000 nM; in experiment [5], 1000 to 10000 nM; in experiment [6], 50 to 500 nM. Also, in experiment [2], the MTAP intact/deleted ratio entry is “A (an IC50 ratio greater than or equal to 10 fold)”.

On to `C[C@@H]1CC[C@@H](c2ccc(F)c(F)c2)N(C(=O)C(=O)Nc2cncc(C(N)=O)c2)C1` (racemic) [Compound 263, rac-5-{2-[(2R,5S)-2-(3,4-Difluorophenyl)-5-methylpiperidin-1-yl]-2-oxoacetamido}pyridine-3-carboxamide], for which the IC50 is under 50 nM in experiment [1]; 100 to 1000 nM in experiment [2]; 50 to 500 nM in experiment [3]; over 1000 nM in experiment [4]; 1000 to 10000 nM in experiment [5]; 50 to 500 nM in experiment [6]. The MTAP intact/deleted ratio result in experiment [2] was “A (an IC50 ratio greater than or equal to 10 fold)”.

For `C[C@@H]1CC[C@@H](c2ccc(OC3CCOC3)cc2)N(C(=O)C(=O)Nc2cncc(C(N)=O)c2)C1` (mixture of isomers) [Compound 264, rac-5-{2-[(2R,5S)-5-Methyl-2-[4-(oxolan-3-yloxy)phenyl]piperidin-1-yl]-2-oxoacetamido}pyridine-3-carboxamide], the IC50 in experiment [1] is 50 to 500 nM; in experiment [2], under 100 nM; in experiment [3], 50 to 500 nM; in experiment [4], over 1000 nM; in experiment [5], 1000 to 10000 nM; in experiment [6] it was 50 to 500 nM. Besides, the MTAP intact/deleted ratio entry in experiment [2] is on record as “A (an IC50 ratio greater than or equal to 10 fold)”.

As to `C[C@@H]1CC[C@@H](c2cccc(C(F)(F)F)c2)N(C(=O)C(=O)Nc2cncc(C(N)=O)c2)C1` (racemic) [Compound 265, rac-5-{2-[(2R,5S)-5-Methyl-2-[3-(trifluoromethyl)phenyl]piperidin-1-yl]-2-oxoacetamido}pyridine-3-carboxamide], the IC50 in experiment [1] was under 50 nM; in experiment [2], 100 to 1000 nM; in experiment [3] it was 50 to 500 nM; in experiment [4] it was over 1000 nM; in experiment [5], 1000 to 10000 nM; in experiment [6], 50 to 500 nM. Also, the MTAP intact/deleted ratio result in experiment [2] is given as “A (an IC50 ratio greater than or equal to 10 fold)”.

Regarding `NC(=O)c1cncc(NC(=O)C(=O)N2C[C@@H](CO)CC[C@@H]2c2ccccc2)c1` (racemic) [Compound 266, 5-(2-(5-(hydroxymethyl)-2-phenylpiperidin-1-yl)-2-oxoacetamido)nicotinamide], the IC50 in experiment [1] was 50 to 500 nM; in experiment [2], 100 to 1000 nM; in experiment [3] it was over 500 nM; in experiment [4], over 1000 nM; in experiment [5] it was over 10000 nM; in experiment [6], 50 to 500 nM. Moreover, the MTAP intact/deleted ratio entry in experiment [2] is listed as “A (an IC50 ratio greater than or equal to 10 fold)”.

In the case of `C[C@@H]1CC[C@@H](c2cccc(C(F)F)c2)N(C(=O)C(=O)Nc2cncc(C(N)=O)c2)C1` (racemic) [Compound 268, rac-5-{2-[(2R,5S)-2-[3-(Difluoromethyl)phenyl]-5-methylpiperidin-1-yl]-2-oxoacetamido}pyridine-3-carboxamide], the IC50 in experiment [1] is under 50 nM; in experiment [2], 100 to 1000 nM; in experiment [3], 50 to 500 nM; in experiment [4] it was over 1000 nM; in experiment [5], 1000 to 10000 nM; in experiment [6] it was 50 to 500 nM. The MTAP intact/deleted ratio entry in experiment [2] is “A (an IC50 ratio greater than or equal to 10 fold)”.

Consider `C[C@@H]1CC[C@@H](c2ccc3c(c2)OCO3)N(C(=O)C(=O)Nc2cncc(C(N)=O)c2)C1` (racemic) [Compound 270, rac-5-{2-[(2R,5S)-2-(1,3-Dioxaindan-5-yl)-5-methylpiperidin-1-yl]-2-oxoacetamido}pyridine-3-carboxamide], for which the IC50 is under 50 nM in experiment [1]; under 100 nM in experiment [2]; 50 to 500 nM in experiment [3]; over 1000 nM in experiment [4]; 1000 to 10000 nM in experiment [5]; 50 to 500 nM in experiment [6]. The MTAP intact/deleted ratio entry in experiment [2] is recorded as “A (an IC50 ratio greater than or equal to 10 fold)”.

As to `C[C@@H]1CC[C@@H](c2ccc(OC(F)F)cc2)N(C(=O)C(=O)Nc2cncc(C(N)=O)c2)C1` (racemic) [Compound 271, rac-5-{2-[(2R,5S)-2-[4-(Difluoromethoxy)phenyl]-5-methylpiperidin-1-yl]-2-oxoacetamido}pyridine-3-carboxamide], the IC50 was under 50 nM in experiment [1]; 100 to 1000 nM in experiment [2]; 50 to 500 nM in experiment [3]; over 1000 nM in experiment [4]; 1000 to 10000 nM in experiment [5]; 50 to 500 nM in experiment [6]. Besides, in experiment [2], the MTAP intact/deleted ratio entry is reported as “A (an IC50 ratio greater than or equal to 10 fold)”.

For the molecule `C[C@@H]1CC[C@@H](c2ccc3nncn3c2)N(C(=O)C(=O)Nc2cncc(C(N)=O)c2)C1` (racemic) [Compound 272, rac-5-{2-[(2R,5S)-5-Methyl-2-{[1,2,4]triazolo[4,3-a]pyridin-6-yl}piperidin-1-yl]-2-oxoacetamido}pyridine-3-carboxamide], the IC50 is 50 to 500 nM in experiment [1]; over 1000 nM in experiment [2]; 50 to 500 nM in experiment [3]; over 1000 nM in experiment [4]; over 10000 nM in experiment [5]; 50 to 500 nM in experiment [6]. Moreover, the MTAP intact/deleted ratio result in experiment [2] is reported as “C (an IC50 ratio of less than 3 fold)”.

With `C[C@@H]1CC[C@@H](c2ccc(CC3CC3)cc2)N(C(=O)C(=O)Nc2cncc(C(N)=O)c2)C1` (racemic) [Compound 273, rac-5-{2-[(2R,5S)-2-[4-(Cyclopropylmethyl)phenyl]-5-methylpiperidin-1-yl]-2-oxoacetamido}pyridine-3-carboxamide], the IC50 in experiment [1] is under 50 nM; in experiment [2] it was 100 to 1000 nM; in experiment [3], 50 to 500 nM; in experiment [4], over 1000 nM; in experiment [5], 1000 to 10000 nM; in experiment [6] it was 50 to 500 nM. For the same molecule, in experiment [2], the MTAP intact/deleted ratio entry is given as “A (an IC50 ratio greater than or equal to 10 fold)”.

The values are drawn from patent US11999727B2 (Tango Therapeutics, Inc., priority 2020, dated 2024).
